Data as given in ChEMBL document CHEMBL1201862, “PubChem BioAssay data set” (2004).
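All cell lines were grown in 96-well plates and treated with compound for 48 hours. At the GI50, growth is halved.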 The source made the active and inactive calls. Rule as the data show it: active = GI50 up to about 1.1 µM and inactive = higher.

Columns and labels:
Assay in all cases: DTP human tumour cell line panel, 48 h
SR = tested on: SR
786-0 = tested on: 786-0
TK-10 = tested on: TK-10
UACC-62 = tested on: UACC-62
CAKI-1 = tested on: CAKI-1
PC-3 = tested on: PC-3
SK-MEL-2 = tested on: SK-MEL-2
NCI-H460 = tested on: NCI-H460
UACC-257 = tested on: UACC-257
M14 = tested on: M14
RPMI-8226 = tested on: RPMI-8226
SNB-19 = tested on: SNB-19
SF-268 = tested on: SF-268
Hs-578T = tested on: Hs-578T
SK-MEL-28 = tested on: SK-MEL-28
SW-620 = tested on: SW-620
OVCAR-8 = tested on: OVCAR-8
SNB-75 = tested on: SNB-75
SN12C = tested on: SN12C
SK-MEL-5 = tested on: SK-MEL-5
MDA-N = tested on: MDA-N
A498 = tested on: A498
RXF 393 = tested on: RXF 393
HCC 2998 = tested on: HCC 2998
MDA-MB-231 = tested on: MDA-MB-231
U-251 = tested on: U-251
COLO 205 = tested on: COLO 205
OVCAR-4 = tested on: OVCAR-4
MDA-MB-435 = tested on: MDA-MB-435
NCI-H226 = tested on: NCI-H226
A549 = tested on: A549
HOP-62 = tested on: HOP-62
HT-29 = tested on: HT-29
SF-295 = tested on: SF-295
HCT-116 = tested on: HCT-116
LOX IMVI = tested on: LOX IMVI
BT-549 = tested on: BT-549
SK-OV-3 = tested on: SK-OV-3
OVCAR-3 = tested on: OVCAR-3
ACHN = tested on: ACHN
HCT-15 = tested on: HCT-15
IGROV-1 = tested on: IGROV-1
K562 = tested on: K562
HOP-92 = tested on: HOP-92
Malme-3M = tested on: Malme-3M
NCI/ADR-RES = tested on: NCI/ADR-RES
KM12 = tested on: KM12
MOLT-4 = tested on: MOLT-4
CCRF-CEM = tested on: CCRF-CEM
NCI-H522 = tested on: NCI-H522
DU-145 = tested on: DU-145
T47D = tested on: T47D
OVCAR-5 = tested on: OVCAR-5
NCI-H23 = tested on: NCI-H23
UO-31 = tested on: UO-31
EKVX = tested on: EKVX
MCF7 = tested on: MCF7
HL-60 = tested on: HL-60
SF-539 = tested on: SF-539

## CCOC(=O)C(=[N+]=[N-])C(=O)C[N+]12CCN(CC1)CC2
SR
  GI50: > 100 µM (inactive)
786-0
  GI50: > 100 µM (inactive)
TK-10
  GI50: > 100 µM (inactive)
UACC-62
  GI50: > 100 µM (inactive)
CAKI-1
  GI50: > 100 µM (inactive)
PC-3
  GI50: > 100 µM (inactive)
SK-MEL-2
  GI50: > 100 µM (inactive)
NCI-H460
  GI50: > 100 µM (inactive)
UACC-257
  GI50: > 100 µM (inactive)
M14
  GI50: > 100 µM (inactive)
RPMI-8226
  GI50: > 100 µM (inactive)
SNB-19
  GI50: > 100 µM (inactive)
SF-268
  GI50: > 100 µM (inactive)
Hs-578T
  GI50: > 100 µM (inactive)
SK-MEL-28
  GI50: > 100 µM (inactive)
SW-620
  GI50: > 100 µM (inactive)
OVCAR-8
  GI50: > 100 µM (inactive)
SNB-75
  GI50: > 100 µM (inactive)
SN12C
  GI50: > 100 µM (inactive)
SK-MEL-5
  GI50: > 100 µM (inactive)
MDA-N
  GI50: > 100 µM (inactive)
A498
  GI50: > 100 µM (inactive)
RXF 393
  GI50: > 100 µM (inactive)
HCC 2998
  GI50: > 100 µM (inactive)
MDA-MB-231
  GI50: > 100 µM (inactive)
U-251
  GI50: > 100 µM (inactive)
COLO 205
  GI50: > 100 µM (inactive)
OVCAR-4
  GI50: > 100 µM (inactive)
MDA-MB-435
  GI50: > 100 µM (inactive)
NCI-H226
  GI50: > 100 µM (inactive)
A549
  GI50: > 100 µM (inactive)
HOP-62
  GI50: > 100 µM (inactive)
HT-29
  GI50: > 100 µM (inactive)
SF-295
  GI50: > 100 µM (inactive)
HCT-116
  GI50: > 100 µM (inactive)
LOX IMVI
  GI50: > 100 µM (inactive)
BT-549
  GI50: > 100 µM (inactive)
SK-OV-3
  GI50: > 100 µM (inactive)
OVCAR-3
  GI50: > 100 µM (inactive)
ACHN
  GI50: > 100 µM (inactive)
HCT-15
  GI50: > 100 µM
IGROV-1
  GI50: > 100 µM (inactive)
K562
  GI50: > 100 µM (inactive)
HOP-92
  GI50: > 100 µM (inactive)
Malme-3M
  GI50: > 100 µM (inactive)
NCI/ADR-RES
  GI50: > 100 µM (inactive)
KM12
  GI50: > 100 µM (inactive)
MOLT-4
  GI50: > 100 µM (inactive)
CCRF-CEM
  GI50: > 100 µM (inactive)
NCI-H522
  GI50: > 100 µM (inactive)
DU-145
  GI50: > 100 µM (inactive)
T47D
  GI50: > 100 µM (inactive)
OVCAR-5
  GI50: > 100 µM (inactive)
NCI-H23
  GI50: > 100 µM (inactive)
UO-31
  GI50: > 100 µM (inactive)

## CC(C)OP(=O)(c1ccccc1)c1ccc2c(c1)OCCOCCOCCOCCO2 (stereo not drawn)
786-0
  GI50: > 100 µM (inactive)
TK-10
  GI50: > 100 µM (inactive)
UACC-62
  GI50: > 100 µM (inactive)
EKVX
  GI50: > 100 µM (inactive)
PC-3
  GI50: > 100 µM (inactive)
NCI-H460
  GI50: > 100 µM (inactive)
UACC-257
  GI50: > 100 µM (inactive)
RPMI-8226
  GI50: > 100 µM (inactive)
SNB-19
  GI50: > 100 µM (inactive)
SF-268
  GI50: > 100 µM (inactive)
Hs-578T
  GI50: > 100 µM (inactive)
SK-MEL-28
  GI50: > 100 µM (inactive)
SW-620
  GI50: > 100 µM (inactive)
OVCAR-8
  GI50: > 100 µM (inactive)
SNB-75
  GI50: > 100 µM (inactive)
SN12C
  GI50: > 100 µM (inactive)
SK-MEL-5
  GI50: > 100 µM (inactive)
MDA-N
  GI50: > 100 µM (inactive)
A498
  GI50: > 100 µM (inactive)
HCC 2998
  GI50: > 100 µM (inactive)
MDA-MB-231
  GI50: > 100 µM (inactive)
MCF7
  GI50: > 100 µM (inactive)
COLO 205
  GI50: > 100 µM (inactive)
MDA-MB-435
  GI50: > 100 µM (inactive)
NCI-H226
  GI50: > 100 µM (inactive)
A549
  GI50: > 100 µM (inactive)
HOP-62
  GI50: > 100 µM (inactive)
HT-29
  GI50: > 100 µM (inactive)
HL-60
  GI50: > 100 µM (inactive)
SF-295
  GI50: > 100 µM (inactive)
HCT-116
  GI50: > 100 µM (inactive)
LOX IMVI
  GI50: > 100 µM (inactive)
BT-549
  GI50: > 100 µM (inactive)
SK-OV-3
  GI50: > 100 µM (inactive)
SF-539
  GI50: > 100 µM (inactive)
ACHN
  GI50: > 100 µM (inactive)
HCT-15
  GI50: > 100 µM
IGROV-1
  GI50: > 100 µM (inactive)
K562
  GI50: > 100 µM (inactive)
Malme-3M
  GI50: > 100 µM (inactive)
KM12
  GI50: > 100 µM (inactive)
MOLT-4
  GI50: > 100 µM (inactive)
CCRF-CEM
  GI50: > 100 µM (inactive)
NCI-H522
  GI50: 84.7 µM (inactive)
DU-145
  GI50: > 100 µM (inactive)
T47D
  GI50: > 100 µM (inactive)
NCI-H23
  GI50: > 100 µM (inactive)
UO-31
  GI50: > 100 µM (inactive)
